Laboratory results taken from the supplement of paper PMC9663587.

Tests used:
Torin2 = compound: C1=CC(=CC(=C1)N2C(=O)C=CC3=CN=C4C=CC(=CC4=C32)C5=CN=C(C=C5)N)C(F)(F)F [Torin2]
R0-3306 = compound: C1=CC2=C(C=CC(=C2)C=C3C(=O)NC(=NCC4=CC=CS4)S3)N=C1 [R0-3306]
AZD1775 = compound: C=CCn1c(=O)c2cnc(Nc3ccc(N4CCN(C)CC4)cc3)nc2n1-c1cccc(C(C)(C)O)n1 [AZD1775]
[1] = compound: CC(=O)Nc1cccc(-n2c(=O)n(C3CC3)c(=O)c3c(Nc4ccc(I)cc4F)n(C)c(=O)c(C)c32)c1
BSJ-03-123 = compound: CC(=O)c1c(C)c2cnc(Nc3ccc(N4CCN(CCOCCOCCOCCNC(=O)COc5cccc6c5C(=O)N(C5CCC(=O)NC5=O)C6=O)CC4)cn3)nc2n(C2CCCC2)c1=O [BSJ-03-123]
[2] = compound: CC(=O)c1c(C)c2cnc(Nc3ccc(N4CCNCC4)cn3)nc2n(C2CCCC2)c1=O
Ipatasertib/GDC0068 = compound: CC(C)NC[C@@H](C(=O)N1CCN(c2ncnc3c2[C@H](C)C[C@H]3O)CC1)c1ccc(Cl)cc1 [Ipatasertib/GDC0068]
SHP099 = compound: CC1(CCN(CC1)C2=CN=C(C(=N2)N)C3=C(C(=CC=C3)Cl)Cl)N [SHP099]
[3] = compound: CCC1=CN=CN=C1N2CCN(CC2)CC3=NC4=C(N3)C=C(C=C4)C(F)(F)F
[4] = compound: CCCCOc1c(C(=O)c2c(F)cc(C)cc2F)c[nH]c2nncc1-2
[5] = compound: CCN1CCN(Cc2ccc(Nc3ncc(F)c(-c4cc(F)c5nc(C)n(C(C)C)c5c4)n3)nc2)CC1
Luminespib/NVP-AUY922 = compound: CCNC(=O)c1noc(-c2cc(C(C)C)c(O)cc2O)c1-c1ccc(CN2CCOCC2)cc1 [Luminespib/NVP-AUY922]
Neratinib/HKI272 = compound: CCOc1cc2ncc(C#N)c(Nc3ccc(OCc4ccccn4)c(Cl)c3)c2cc1NC(=O)/C=C/CN(C)C [Neratinib/HKI272]
Volasertib/BI6727 = compound: CC[C@@H]1C(=O)N(C)c2cnc(Nc3ccc(C(=O)N[C@H]4CC[C@H](N5CCN(CC6CC6)CC5)CC4)cc3OC)nc2N1C(C)C [Volasertib/BI6727]
[6] = compound: CCc1cnn2c(NCc3ccc[n+]([O-])c3)cc(N3CCCC[C@H]3CCO)nc12
LEE011/Ribociclib = compound: CN(C)C(=O)c1cc2cnc(Nc3ccc(N4CCNCC4)cn3)nc2n1C1CCCC1 [LEE011/Ribociclib]
THZ-P1-2 = compound: CN(C)C/C=C/C(=O)NC1=CC=C(C=C1)C(=O)NC2=CC=CC(=C2)NC3=NC=NC(=C3)C4=CNC5=CC=CC=C54 [THZ-P1-2]
THZ1 = compound: CN(C)C/C=C/C(=O)Nc1ccc(C(=O)Nc2cccc(Nc3ncc(Cl)c(-c4c[nH]c5ccccc45)n3)c2)cc1 [THZ1]
ABT-737 = compound: CN(C)CC[C@H](CSc1ccccc1)Nc1ccc(S(=O)(=O)NC(=O)c2ccc(N3CCN(Cc4ccccc4-c4ccc(Cl)cc4)CC3)cc2)cc1[N+](=O)[O-] [ABT-737]
Saracatinib/AZD0530 = compound: CN1CCN(CCOc2cc(OC3CCOCC3)c3c(Nc4c(Cl)ccc5c4OCO5)ncnc3c2)CC1 [Saracatinib/AZD0530]
Flavopiridol = compound: CN1CC[C@H](c2c(O)cc(O)c3c(=O)cc(-c4ccccc4Cl)oc23)[C@H](O)C1 [Flavopiridol]
Cabozantinib = compound: COc1cc2nccc(Oc3ccc(NC(=O)C4(C(=O)Nc5ccc(F)cc5)CC4)cc3)c2cc1OC [Cabozantinib]
[7] = compound: COc1ccc2c(c1)[C@]1(C[C@H]1c1ccc3c(/C=C/c4ccc(CN5C[C@@H](C)O[C@@H](C)C5)cc4)n[nH]c3c1)C(=O)N2
Doxorubicin = compound: COc1cccc2c1C(=O)c1c(O)c3c(c(O)c1C2=O)C[C@@](O)(C(=O)CO)C[C@@H]3O[C@H]1C[C@H](N)[C@H](O)[C@H](C)O1 [Doxorubicin]
Taselisib/GDC0032 = compound: Cc1nc(-c2cn3c(n2)-c2ccc(-c4cnn(C(C)(C)C(N)=O)c4)cc2OCC3)n(C(C)C)n1 [Taselisib/GDC0032]
Alpelisib/BYL719 = compound: Cc1nc(NC(=O)N2CCC[C@H]2C(N)=O)sc1-c1ccnc(C(C)(C)C(F)(F)F)c1 [Alpelisib/BYL719]
Dasatinib = compound: Cc1nc(Nc2ncc(C(=O)Nc3c(C)cccc3Cl)s2)cc(N2CCN(CCO)CC2)n1 [Dasatinib]
AZD7762 = compound: NC(=O)Nc1cc(-c2cccc(F)c2)sc1C(=O)N[C@H]1CCCNC1 [AZD7762]
AZD5363 = compound: NC1(C(=O)N[C@@H](CCO)c2ccc(Cl)cc2)CCN(c2nc[nH]c3nccc2-3)CC1 [AZD5363]
Vorinostat = compound: O=C(CCCCCCC(=O)Nc1ccccc1)NO [Vorinostat]
Olaparib/AZD2281 = compound: O=C(c1cc(Cc2n[nH]c(=O)c3ccccc23)ccc1F)N1CCN(C(=O)C2CC2)CC1 [Olaparib/AZD2281]
AZD2014 = compound: CNC(=O)c1cccc(-c2ccc3c(N4CCOC[C@@H]4C)nc(N4CCOC[C@@H]4C)nc3n2)c1 [AZD2014]
[8] = compound: CO[C@@H](C)Cn1c(=O)n(C)c2cnc3ccc(-c4cncc(C(C)(C)O)c4)cc3c21
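Further: breast cancer and non-malignant breast epithelial cell lines, Deep Dye Drop or Dye Drop imaging, nine half-log doses, GR normalized to time-zero plates and DMSO-only controls.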

Cell Line | GR50, 72 h (Torin2) | GR50, 72 h (R0-3306) | GR50, 72 h (AZD1775) | GR50, 72 h [1] | GR50, 72 h (BSJ-03-123) | GR50, 72 h [2] | GR50, 72 h (Ipatasertib/GDC0068) | GR50, 72 h (SHP099) | GR50, 72 h [3] | GR50, 72 h [4] | GR50, 72 h [5] | GR50, 72 h (Luminespib/NVP-AUY922) | GR50, 72 h (Neratinib/HKI272) | GR50, 72 h (Volasertib/BI6727) | GR50, 72 h [6] | GR50, 72 h (LEE011/Ribociclib) | GR50, 72 h (THZ-P1-2) | GR50, 72 h (THZ1) | GR50, 72 h (ABT-737) | GR50, 72 h (Saracatinib/AZD0530) | GR50, 72 h (Flavopiridol) | GR50, 72 h (Cabozantinib) | GR50, 72 h [7] | GR50, 72 h (Doxorubicin) | GR50, 72 h (Taselisib/GDC0032) | GR50, 72 h (Alpelisib/BYL719) | GR50, 72 h (Dasatinib) | GR50, 72 h (AZD7762) | GR50, 72 h (AZD5363) | GR50, 72 h (Vorinostat) | GR50, 72 h (Olaparib/AZD2281) | GR50, 72 h (AZD2014) | GR50, 72 h [8]
HCC1569 | 0.0105 µM | 4.54 µM | 0.00634 µM | > 1 µM | 2.86 µM | > 3.16 µM | 0.394 µM | > 10 µM | > 10 µM | 0.0109 µM | 4.64 µM | 0.0107 µM | 0.0891 µM | 0.0189 µM | 0.0164 µM | > 10 µM | 4.75 µM | 0.0283 µM | 1.07 µM | 3.28 µM | 0.11 µM | > 10 µM | 0.00952 µM | 0.0255 µM | 0.0552 µM | 5.28 µM | 0.0769 µM | 0.0361 µM | 0.358 µM | 3.31 µM | > 10 µM |  | 
MDAMB157 | 0.0344 µM |  |  | 0.111 µM |  | > 3.16 µM | > 10 µM |  | 3.78 µM |  | 1.8 µM | 0.00418 µM | 0.796 µM | 0.00692 µM | 0.0177 µM |  |  |  | 6.41 µM | 5.23 µM |  | 2.78 µM |  | 0.00323 µM | 1.36 µM | 9.77 µM | 0.0605 µM | 0.0154 µM |  | 1.1 µM | 5.39 µM |  | 
MDAMB175VII | 0.0022 µM |  | 0.0486 µM | 0.00195 µM | 0.301 µM | 0.00212 µM | 0.22 µM | 2.47 µM | 1.34 µM | 0.00153 µM | 0.00292 µM | 0.00398 µM | 0.00127 µM | 0.0114 µM | 0.0118 µM |  | 3.1 µM | 0.0271 µM | 4.58 µM | 0.0646 µM | 0.0523 µM | 7.74 µM | 0.00391 µM | 0.00311 µM | 0.00272 µM | 0.154 µM | 0.0162 µM | 0.0769 µM | 0.0495 µM | 0.546 µM | 9.32 µM | < 0.001 µM | < 0.001 µM
MDAMB330 | 0.00492 µM | 7.54 µM | 0.0535 µM | 0.138 µM | 0.297 µM | 0.0198 µM | 0.38 µM |  | > 10 µM | 0.762 µM | 0.00409 µM | 0.00239 µM | 0.00221 µM | 0.0032 µM | 0.0203 µM | < 0.001 µM |  | 0.00836 µM | 2.07 µM | 1.2 µM | 0.232 µM | > 10 µM | 0.00542 µM | 0.00368 µM | 0.00814 µM | 1.2 µM | > 10 µM | 0.0449 µM | 0.198 µM | 1.55 µM | 9.31 µM | < 0.001 µM | < 0.001 µM
